Results as given in paper PMC11892714 (OTA International, 2025).

Test: Vancomycin pharmacokinetics, serum concentration after IO vs IV delivery
Type: in vivo, New Zealand White rabbits
Conditions: rabbit, samples T0-T6, LC-MS/MS (Fig. 7A)

Compound: CN[C@H](CC(C)C)C(=O)N[C@H]1C(=O)N[C@@H](CC(N)=O)C(=O)N[C@H]2C(=O)N[C@H]3C(=O)N[C@H](C(=O)N[C@H](C(=O)O)c4cc(O)cc(O)c4-c4cc3ccc4O)[C@H](O)c3ccc(c(Cl)c3)Oc3cc2cc(c3O[C@@H]2O[C@H](CO)[C@@H](O)[C@H](O)[C@H]2O[C@H]2C[C@](C)(N)[C@H](O)[C@H](C)O2)Oc2ccc(cc2Cl)[C@H]1O [vancomycin]
- Serum vancomycin profile across time, IO delivery (30 mg/kg IO over 30 min): slight peak but remained at relatively consistent serum levels across time points
- Serum vancomycin profile across time, IV delivery (30 mg/kg IV over 30 min): high systemic peak soon after bolus delivery with a steady decline across time
